According to article PMC12813973, “Consequences of Peptide Macrocyclization Revealed by Virus-Inspired β‑Hairpin Mimetics” (ACS Chemical Biology, 2025):
Where two headings read alike, the source gives them in different places.

Experiments:
Assay type in all cases: binding
STAT1 [1] = molecular target: T1, STAT1 (Homo sapiens, UniProt P42224); assay: Fluorescence polarization competition assay with fluorescein-labelled pIFNGR1 docking site peptide probe; details: 10 nM fluorescein pIFNGR1 probe, STAT1 1.5 μM, 20 mM Tris pH 8.0, 300 mM NaCl, 0.1% Tween-20, 0.5 mM TCEP, 2.5% DMSO, room temperature; four parameter logistic fit; read-out: IC50 (FP competition, pIFNGR1 probe displacement)
T1 construct: full-length STAT1 (Uniprot #P42224-1) was expressed in E. coli; His tag (pEXP-NHis vector) (N); made in house; host or cells: E. coli T7 Express
T1 sequence (P42224 1-750): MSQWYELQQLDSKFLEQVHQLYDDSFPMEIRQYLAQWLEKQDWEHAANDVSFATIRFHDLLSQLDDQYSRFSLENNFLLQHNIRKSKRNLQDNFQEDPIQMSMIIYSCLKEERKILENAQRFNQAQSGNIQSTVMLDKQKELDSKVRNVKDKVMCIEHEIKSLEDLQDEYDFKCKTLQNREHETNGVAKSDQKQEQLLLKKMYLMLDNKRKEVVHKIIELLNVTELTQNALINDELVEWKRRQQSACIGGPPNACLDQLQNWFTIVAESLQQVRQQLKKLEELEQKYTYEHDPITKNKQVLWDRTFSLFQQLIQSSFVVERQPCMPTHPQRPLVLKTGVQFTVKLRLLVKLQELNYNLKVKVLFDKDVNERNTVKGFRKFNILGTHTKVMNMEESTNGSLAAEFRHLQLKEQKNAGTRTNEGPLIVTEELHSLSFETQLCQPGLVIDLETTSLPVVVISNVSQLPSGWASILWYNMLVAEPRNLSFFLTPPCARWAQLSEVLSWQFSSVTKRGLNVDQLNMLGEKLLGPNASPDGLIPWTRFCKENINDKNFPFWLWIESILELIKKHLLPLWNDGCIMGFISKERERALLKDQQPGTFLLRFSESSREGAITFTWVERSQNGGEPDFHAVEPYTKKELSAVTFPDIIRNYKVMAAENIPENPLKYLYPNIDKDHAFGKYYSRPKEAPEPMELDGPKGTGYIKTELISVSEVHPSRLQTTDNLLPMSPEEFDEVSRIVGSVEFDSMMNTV

STAT3 = molecular target: T2, STAT3 (Homo sapiens, UniProt P40763); assay: biochemical; details: for KD: analyte 10 µM (1, 3, 5) or 0.5 µM (4, 6), n.b. – no binding observed
T2 construct: STAT3: the gene encoding full-length STAT3 was codon optimised for expression in; MBP (pEXP-MBP vector) (cleaved yes); His tag (IMAC capture, removed with the fusion by TEV and reverse IMAC) (cleaved yes); made in house; host or cells: E. coli T7 Express
Experimental: In such PPIs, the bulk of the binding energy contribution typically stems from backbone interactions, whereas binding specificity is fine-tuned by side-chain contacts. […] We evaluated the binding kinetics of peptides to full-length STAT3 using GCI.
(§1) Grating coupled interferometry (GCI)
(§2) GCI experiments were performed on a Creoptix WaveDELTA instrument (Malvern Panalytical). Full-length STAT1 or STAT3 were immobilised on a 4PCH chip (Malvern Panalytical #4PCH-03) to a density 2000-8000 pg/mm2 using EDC/NHS activation followed by amine coupling. Briefly, proteins (500 nM) were applied onto an activated chip in 10 mM MES pH 6.5, 20 mM NaCl, after which the chip surface was passivated with 1M ethanolamine, pH 8.0.
(§3) The kinetic measurements were perfor med using 20 mM HEPES pH 7.5, 300 mM NaCl, 0.01% Tween-20, 0.0005% DMSO as running buffer. Peptides were tested at 0.5 or 10 μM concentration using the waveRAPID kinetics experiment with the tight binder or intermediate binder mode, respectively.[4] Sensorgrams were fitted in the waveControl software (Malven Panalytical) using the 1:1 kinetic model. […]
GCI sensorgrams depicting RAPID kinetics measurements and fitted kinetic models for peptide binding to full-length STAT3 immobilised on a polycarboxylate hydrogel chip (4PCH). Peptides were applied at 0.5 or 10 μM concentration using the medium or tight binders pulse sequence. The peptides that show negligible Rmax values at 10 μM analyte concentration were classified as non-binding.
(1 picture or pasted object on this page, not shown here)

STAT1 [2] = molecular target: T1, STAT1; assay: Grating-coupled interferometry (GCI) waveRAPID kinetics, immobilised full-length STAT1; details: for kd / kon at 0.5 µM: analyte 0.5 µM; for kon at 0.5 µM: read-out: ka
Text: Understanding the molecular determinants of kinetic rate constants of binding (k a, k d) can aid the design of pharmacological probes with longer target engagement, which is beneficial for drug efficacy and decreased toxicity. , We characterized the binding kinetics of 018-derived macrocycles by using grating-coupled interferometry (GCI). We used waveRAPID, a regeneration-free kinetic binding assay that applies sequential analyte pulses of increasing duration onto a GCI biosensor surface with an immobilized target (Figures A, and S3,S4, Table S2).
as §1, §2, §3

[3] = replicate 1 (first listed run, Table S2)
[4] = replicate 2 (second listed run, Table S2)
[5] = replicate 3 (third listed run, Table S2)

T2 sequence (P40763 whole entry, species assumed, the tested form may be a part): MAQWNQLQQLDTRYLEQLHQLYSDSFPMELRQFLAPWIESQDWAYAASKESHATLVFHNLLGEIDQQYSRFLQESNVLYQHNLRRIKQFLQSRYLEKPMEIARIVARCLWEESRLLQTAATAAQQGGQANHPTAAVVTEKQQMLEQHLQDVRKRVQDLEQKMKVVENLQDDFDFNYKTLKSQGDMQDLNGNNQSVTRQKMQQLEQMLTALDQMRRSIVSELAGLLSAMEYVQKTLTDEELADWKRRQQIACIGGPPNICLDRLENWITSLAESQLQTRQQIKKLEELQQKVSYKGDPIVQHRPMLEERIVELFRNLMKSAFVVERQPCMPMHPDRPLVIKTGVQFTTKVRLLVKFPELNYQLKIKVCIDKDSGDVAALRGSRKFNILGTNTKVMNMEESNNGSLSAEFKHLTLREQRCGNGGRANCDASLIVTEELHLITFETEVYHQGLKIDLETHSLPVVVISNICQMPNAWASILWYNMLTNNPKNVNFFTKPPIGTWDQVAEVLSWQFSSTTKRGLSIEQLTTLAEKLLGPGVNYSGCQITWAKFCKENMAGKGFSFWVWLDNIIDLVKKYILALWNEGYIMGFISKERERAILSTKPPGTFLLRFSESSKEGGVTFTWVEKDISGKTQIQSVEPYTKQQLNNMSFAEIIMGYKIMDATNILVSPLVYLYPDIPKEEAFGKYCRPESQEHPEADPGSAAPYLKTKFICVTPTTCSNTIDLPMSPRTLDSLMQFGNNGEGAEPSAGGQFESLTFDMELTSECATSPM

CC[C@H](C)[C@H](NC(=O)[C@H](Cc1ccccc1)NC(=O)[C@@H](NC(=O)[C@H](CO)NC(=O)[C@H](Cc1c[nH]c2ccccc12)NC(=O)[C@H](CCSC)NC(C)=O)C(C)C)C(=O)N[C@@H](Cc1c[nH]cn1)C(=O)NCC(=O)N[C@@H](Cc1c[nH]cn1)C(=O)N[C@@H](CC(=O)O)C(=O)NCC(=O)N[C@@H](CO)C(=O)N[C@@H](CC(N)=O)C(=O)N[C@@H](CCCCN)C(=O)NCC(=O)N[C@@H](CO)C(=O)N[C@@H](CCCCN)C(=O)N[C@H](C(=O)N[C@@H](Cc1ccc(O)cc1)C(=O)N[C@H](C(N)=O)[C@@H](C)O)[C@@H](C)O [Peptide 1]
IC50 (STAT1 [1]): 4300 nM
KD (STAT3; [3]): n.b.
KD (STAT3; [4]): n.b.
STAT3 binding (GCI), in words (STAT3; full-length STAT3, negligible Rmax at 10 μM classified as non-binding): not detected
Kd (STAT1 [2]; 20 mM HEPES pH 7.5, 300 mM NaCl, 0.01% Tween-20, 1:1 kinetic model, average of 2–4 technical replicates ± SD, SD): 85.8 ± 6.4 nM
residence time (STAT1 [2]; STAT1, GCI, read-out: target residence time τ (τ = 1/kd) (converted)): 0.8 min
kd (STAT1 [2]; [3]): 0.0221 s⁻¹
kon at 0.5 µM (STAT1 [2]; [3]): 241000 M⁻¹ s⁻¹
kd (STAT1 [2]; [4]): 0.0172 s⁻¹
kon at 0.5 µM (STAT1 [2]; [4]): 217000 M⁻¹ s⁻¹
kd (STAT1 [2]; [5]): 0.0226 s⁻¹
kon at 0.5 µM (STAT1 [2]; [5]): 262000 M⁻¹ s⁻¹
